Measurements published in ChEMBL document CHEMBL1201862, “PubChem BioAssay data set” (2004).
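A five-concentration, 48-hour dose response in 96-well plates underlies each endpoint, interpolated linearly between surrounding concentrations. GI50: concentration for 50% inhibition of growth.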 Calls of active or inactive are those of the source. Cut-off read from the data, not from the text of the source: active = GI50 up to about 1.1 µM and inactive = higher.

Key:
Test in all cases: inhibition of tumour cell growth, NCI panel, 48 h
786-0 = test system: 786-0
A498 = test system: A498
A549 = test system: A549
ACHN = test system: ACHN
BT-549 = test system: BT-549
CAKI-1 = test system: CAKI-1
CCRF-CEM = test system: CCRF-CEM
COLO 205 = test system: COLO 205
DLD-1 = test system: DLD-1
DMS-114 = test system: DMS-114
DMS-273 = test system: DMS-273
DU-145 = test system: DU-145
EKVX = test system: EKVX
HCC 2998 = test system: HCC 2998
HCT-116 = test system: HCT-116
HCT-15 = test system: HCT-15
HL-60 = test system: HL-60
HOP-18 = test system: HOP-18
HOP-62 = test system: HOP-62
HOP-92 = test system: HOP-92
HT-29 = test system: HT-29
Hs-578T = test system: Hs-578T
IGROV-1 = test system: IGROV-1
K562 = test system: K562
KM-20L2 = test system: KM-20L2
KM12 = test system: KM12
LOX IMVI = test system: LOX IMVI
LXFL 529 = test system: LXFL 529
M14 = test system: M14
M19-MEL = test system: M19-MEL
MCF7 = test system: MCF7
MDA-MB-231 = test system: MDA-MB-231
MDA-MB-435 = test system: MDA-MB-435
MDA-N = test system: MDA-N
MOLT-4 = test system: MOLT-4
Malme-3M = test system: Malme-3M
NCI-H226 = test system: NCI-H226
NCI-H23 = test system: NCI-H23
NCI-H460 = test system: NCI-H460
NCI-H522 = test system: NCI-H522
NCI/ADR-RES = test system: NCI/ADR-RES
OVCAR-3 = test system: OVCAR-3
OVCAR-4 = test system: OVCAR-4
OVCAR-5 = test system: OVCAR-5
OVCAR-8 = test system: OVCAR-8
PC-3 = test system: PC-3
RPMI-8226 = test system: RPMI-8226
RXF 393 = test system: RXF 393
RXF 631 = test system: RXF 631
SF-268 = test system: SF-268
SF-295 = test system: SF-295
SF-539 = test system: SF-539
SK-MEL-28 = test system: SK-MEL-28
SK-MEL-2 = test system: SK-MEL-2
SK-MEL-5 = test system: SK-MEL-5
SK-OV-3 = test system: SK-OV-3
SN12C = test system: SN12C
SNB-19 = test system: SNB-19
SNB-75 = test system: SNB-75
SNB-78 = test system: SNB-78
SR = test system: SR
SW-620 = test system: SW-620
T47D = test system: T47D
TK-10 = test system: TK-10
U-251 = test system: U-251
UACC-257 = test system: UACC-257
UACC-62 = test system: UACC-62
UO-31 = test system: UO-31
XF498 = test system: XF498

Compound: CCOC(=O)N1CCc2cc(OC)c(OC)c3c2c1cc1cc(OC)c(OC)cc13
- GI50 (786-0): 2530 nM (inactive)
- GI50 (A498): 2210 nM (inactive)
- GI50 (A549): 1700 nM (inactive)
- GI50 (ACHN): 4110 nM (inactive)
- GI50 (BT-549): 577 nM (active)
- GI50 (CAKI-1): 2510 nM (inactive)
- GI50 (CCRF-CEM): 4260 nM (inactive)
- GI50 (COLO 205): 787 nM (active)
- GI50 (DLD-1): 1300 nM (inactive)
- GI50 (DMS-114): 1550 nM (inactive)
- GI50 (DMS-273): 667 nM (active)
- GI50 (DU-145): 3590 nM (inactive)
- GI50 (EKVX): 8970 nM (inactive)
- GI50 (HCC 2998): 2290 nM (inactive)
- GI50 (HCT-116): 1220 nM (inactive)
- GI50 (HCT-15): 914 nM
- GI50 (HL-60): 1320 nM (inactive)
- GI50 (HOP-18): 28100 nM (inactive)
- GI50 (HOP-62): 3270 nM (inactive)
- GI50 (HOP-92): 3800 nM (inactive)
- GI50 (HT-29): 492 nM (active)
- GI50 (Hs-578T): 1990 nM (inactive)
- GI50 (IGROV-1): 4570 nM (inactive)
- GI50 (K562): 2910 nM (inactive)
- GI50 (KM-20L2): 1360 nM (inactive)
- GI50 (KM12): 695 nM (active)
- GI50 (LOX IMVI): 2280 nM (inactive)
- GI50 (LXFL 529): 3780 nM (inactive)
- GI50 (M14): 4290 nM (inactive)
- GI50 (M19-MEL): 1880 nM (inactive)
- GI50 (MCF7): 1100 nM (active)
- GI50 (MDA-MB-231): 5960 nM (inactive)
- GI50 (MDA-MB-435): 393 nM (active)
- GI50 (MDA-N): 127 nM (active)
- GI50 (MOLT-4): 5320 nM (inactive)
- GI50 (Malme-3M): 3500 nM (inactive)
- GI50 (NCI-H226): 4330 nM (inactive)
- GI50 (NCI-H23): 3950 nM (inactive)
- GI50 (NCI-H460): 1090 nM (active)
- GI50 (NCI-H522): 618 nM (active)
- GI50 (NCI/ADR-RES): 655 nM (active)
- GI50 (OVCAR-3): 984 nM (active)
- GI50 (OVCAR-4): 10500 nM (inactive)
- GI50 (OVCAR-5): 16900 nM (inactive)
- GI50 (OVCAR-8): 4800 nM (inactive)
- GI50 (PC-3): 1540 nM (inactive)
- GI50 (RPMI-8226): 3760 nM (inactive)
- GI50 (RXF 393): 2000 nM (inactive)
- GI50 (RXF 631): 2420 nM (inactive)
- GI50 (SF-268): 4510 nM (inactive)
- GI50 (SF-295): 927 nM (active)
- GI50 (SF-539): 1690 nM (inactive)
- GI50 (SK-MEL-28): 4190 nM (inactive)
- GI50 (SK-MEL-2): 2240 nM (inactive)
- GI50 (SK-MEL-5): 499 nM (active)
- GI50 (SK-OV-3): 2560 nM (inactive)
- GI50 (SN12C): 4620 nM (inactive)
- GI50 (SNB-19): 10900 nM (inactive)
- GI50 (SNB-75): 1370 nM (inactive)
- GI50 (SNB-78): 16100 nM (inactive)
- GI50 (SR): 807 nM (active)
- GI50 (SW-620): 1150 nM (inactive)
- GI50 (T47D): 2790 nM (inactive)
- GI50 (TK-10): 7980 nM (inactive)
- GI50 (U-251): 2700 nM (inactive)
- GI50 (UACC-257): 12100 nM (inactive)
- GI50 (UACC-62): 940 nM (active)
- GI50 (UO-31): 11100 nM (inactive)
- GI50 (XF498): 670 nM (active)
